Laboratory results: the NIST ThermoML archive (doi:10.1016/j.jct.2005.03.012)
± gives the expanded uncertainty stated by the source.

Assay: excess molar enthalpy (molar enthalpy of mixing); xn = mol fraction of the nth substance listed
Conditions: Liquid

CO [methanol] + O
Conditions	excess molar enthalpy [kcal/mol]
425.1 K, 10000 kPa, x1 = 0.8	0.0323 ± 0.00174
468.38 K, 10000 kPa, x1 = 0.4	0.119 ± 0.00454
468.72 K, 8500 kPa, x1 = 0.4	0.115 ± 0.0043
469.1 K, 10000 kPa, x1 = 0.6	0.114 ± 0.0043
469.29 K, 5000 kPa, x1 = 0.4	0.104 ± 0.00406
469.31 K, 8500 kPa, x1 = 0.6	0.11 ± 0.00406
469.39 K, 5000 kPa, x1 = 0.3	0.0932 ± 0.00359
469.49 K, 5000 kPa, x1 = 0.5	0.104 ± 0.00406
469.5 K, 10000 kPa, x1 = 0.2	0.0801 ± 0.00311
469.66 K, 8500 kPa, x1 = 0.2	0.0793 ± 0.00311
469.81 K, 5000 kPa, x1 = 0.2	0.0717 ± 0.00287
469.91 K, 5000 kPa, x1 = 0.6	0.096 ± 0.00359
470.63 K, 5000 kPa, x1 = 0.7	0.0803 ± 0.00311
470.65 K, 10000 kPa, x1 = 0.4	0.122 ± 0.00454
470.78 K, 10000 kPa, x1 = 0.6	0.115 ± 0.0043
470.8 K, 10000 kPa, x1 = 0.8	0.0707 ± 0.00287
471.01 K, 8500 kPa, x1 = 0.4	0.118 ± 0.0043
471.06 K, 8500 kPa, x1 = 0.8	0.0689 ± 0.00287
471.22 K, 5000 kPa, x1 = 0.1	0.0392 ± 0.00196
471.24 K, 5000 kPa, x1 = 0.4	0.104 ± 0.00406
471.34 K, 5000 kPa, x1 = 0.8	0.057 ± 0.00263
471.36 K, 5000 kPa, x1 = 0.5	0.104 ± 0.00406
471.45 K, 5000 kPa, x1 = 0.3	0.0941 ± 0.00359
471.49 K, 8500 kPa, x1 = 0.6	0.113 ± 0.0043
471.54 K, 8500 kPa, x1 = 0.2	0.0812 ± 0.00335
471.91 K, 5000 kPa, x1 = 0.6	0.0953 ± 0.00359
472.04 K, 5000 kPa, x1 = 0.7	0.0796 ± 0.00311
472.16 K, 10000 kPa, x1 = 0.8	0.0715 ± 0.00287
472.23 K, 5000 kPa, x1 = 0.9	0.0296 ± 0.00165
472.28 K, 5000 kPa, x1 = 0.8	0.0561 ± 0.00239
472.49 K, 10000 kPa, x1 = 0.2	0.0832 ± 0.00335
473.11 K, 5000 kPa, x1 = 0.2	0.0722 ± 0.00311
473.15 K, 5000 kPa, x1 = 0.1	0.0395 ± 0.00201
473.15 K, 5000 kPa, x1 = 0.2	0.0719 ± 0.00287
473.15 K, 5000 kPa, x1 = 0.3	0.0932 ± 0.00359
473.15 K, 5000 kPa, x1 = 0.4	0.103 ± 0.00382
473.15 K, 5000 kPa, x1 = 0.5	0.103 ± 0.00406
473.15 K, 5000 kPa, x1 = 0.6	0.095 ± 0.00359
473.15 K, 5000 kPa, x1 = 0.7	0.0788 ± 0.00311
473.15 K, 5000 kPa, x1 = 0.8	0.0555 ± 0.00239
473.15 K, 5000 kPa, x1 = 0.9	0.0298 ± 0.00167
473.15 K, 8500 kPa, x1 = 0.2	0.0818 ± 0.00335
473.15 K, 8500 kPa, x1 = 0.4	0.119 ± 0.0043
473.15 K, 8500 kPa, x1 = 0.6	0.113 ± 0.0043
473.15 K, 8500 kPa, x1 = 0.8	0.0696 ± 0.00287
473.15 K, 10000 kPa, x1 = 0.2	0.0827 ± 0.00335
473.15 K, 10000 kPa, x1 = 0.4	0.124 ± 0.00454
473.15 K, 10000 kPa, x1 = 0.6	0.117 ± 0.0043
473.15 K, 10000 kPa, x1 = 0.8	0.0735 ± 0.00311
473.17 K, 5000 kPa, x1 = 0.9	0.0285 ± 0.0017
473.36 K, 5000 kPa, x1 = 0.1	0.0397 ± 0.00198
473.78 K, 8500 kPa, x1 = 0.8	0.0702 ± 0.00287
474.92 K, 5000 kPa, x1 = 0.1	0.0401 ± 0.00203
474.92 K, 5000 kPa, x1 = 0.2	0.0721 ± 0.00287
474.92 K, 5000 kPa, x1 = 0.3	0.0937 ± 0.00359
474.92 K, 5000 kPa, x1 = 0.4	0.103 ± 0.00382
474.92 K, 5000 kPa, x1 = 0.5	0.102 ± 0.00382
474.92 K, 5000 kPa, x1 = 0.6	0.0941 ± 0.00359
474.92 K, 5000 kPa, x1 = 0.7	0.0778 ± 0.00311
474.92 K, 5000 kPa, x1 = 0.8	0.0536 ± 0.00239
474.92 K, 5000 kPa, x1 = 0.9	0.0277 ± 0.0017
475.17 K, 10000 kPa, x1 = 0.2	0.0854 ± 0.00335
475.17 K, 10000 kPa, x1 = 0.4	0.126 ± 0.00454
475.17 K, 10000 kPa, x1 = 0.6	0.118 ± 0.0043
475.17 K, 10000 kPa, x1 = 0.8	0.0755 ± 0.00311
475.47 K, 8500 kPa, x1 = 0.2	0.083 ± 0.00335
475.47 K, 8500 kPa, x1 = 0.4	0.121 ± 0.00454
475.47 K, 8500 kPa, x1 = 0.6	0.115 ± 0.0043
475.47 K, 8500 kPa, x1 = 0.8	0.0705 ± 0.00287
493.71 K, 10000 kPa, x1 = 0.4	0.128 ± 0.00478
494.59 K, 10000 kPa, x1 = 0.2	0.0893 ± 0.00359
494.68 K, 10000 kPa, x1 = 0.6	0.118 ± 0.0043
495.72 K, 10000 kPa, x1 = 0.4	0.125 ± 0.00454
496.09 K, 10000 kPa, x1 = 0.2	0.0884 ± 0.00359
496.33 K, 10000 kPa, x1 = 0.8	0.0702 ± 0.00287
497.18 K, 10000 kPa, x1 = 0.6	0.116 ± 0.0043
498.15 K, 8500 kPa, x1 = 0.1	0.0443 ± 0.00213
498.15 K, 8500 kPa, x1 = 0.2	0.0795 ± 0.00311
498.15 K, 8500 kPa, x1 = 0.3	0.0979 ± 0.00382
498.15 K, 8500 kPa, x1 = 0.4	0.106 ± 0.00406
498.15 K, 8500 kPa, x1 = 0.5	0.103 ± 0.00406
498.15 K, 8500 kPa, x1 = 0.6	0.0938 ± 0.00359
498.15 K, 8500 kPa, x1 = 0.7	0.0758 ± 0.00311
498.15 K, 8500 kPa, x1 = 0.8	0.0522 ± 0.00237
498.15 K, 8500 kPa, x1 = 0.9	0.0256 ± 0.0017
498.15 K, 10000 kPa, x1 = 0.2	0.0875 ± 0.00335
498.15 K, 10000 kPa, x1 = 0.4	0.124 ± 0.00454
498.15 K, 10000 kPa, x1 = 0.6	0.114 ± 0.0043
498.15 K, 10000 kPa, x1 = 0.8	0.0689 ± 0.00287
498.93 K, 10000 kPa, x1 = 0.8	0.0687 ± 0.00287
500.09 K, 8500 kPa, x1 = 0.1	0.0446 ± 0.00215
500.09 K, 8500 kPa, x1 = 0.2	0.0768 ± 0.00311
500.09 K, 8500 kPa, x1 = 0.3	0.0941 ± 0.00359
500.09 K, 8500 kPa, x1 = 0.4	0.101 ± 0.00382
500.09 K, 8500 kPa, x1 = 0.5	0.0978 ± 0.00382
500.09 K, 8500 kPa, x1 = 0.6	0.0868 ± 0.00335
500.09 K, 8500 kPa, x1 = 0.7	0.0683 ± 0.00287
500.09 K, 8500 kPa, x1 = 0.8	0.0466 ± 0.00222
500.09 K, 8500 kPa, x1 = 0.9	0.0222 ± 0.00163
500.24 K, 10000 kPa, x1 = 0.2	0.087 ± 0.00335
500.24 K, 10000 kPa, x1 = 0.4	0.122 ± 0.00454
500.24 K, 10000 kPa, x1 = 0.6	0.112 ± 0.0043
500.24 K, 10000 kPa, x1 = 0.8	0.0679 ± 0.00287
504.64 K, 10000 kPa, x1 = 0.4	0.111 ± 0.00406
